Values of other authors, collected in US20030039701A1 (priority 2000, published 2003).
Where two headings read alike, the source gives them in different places.

What was measured:
[1] = supplementation
young female rats = conditions: mini-osmotic pumps
aromatase = biological target: T1, aromatase (Homo sapiens, UniProt P11511); conditions: relative to chrysin, AG, ANG
T1 sequence (P11511 1-503): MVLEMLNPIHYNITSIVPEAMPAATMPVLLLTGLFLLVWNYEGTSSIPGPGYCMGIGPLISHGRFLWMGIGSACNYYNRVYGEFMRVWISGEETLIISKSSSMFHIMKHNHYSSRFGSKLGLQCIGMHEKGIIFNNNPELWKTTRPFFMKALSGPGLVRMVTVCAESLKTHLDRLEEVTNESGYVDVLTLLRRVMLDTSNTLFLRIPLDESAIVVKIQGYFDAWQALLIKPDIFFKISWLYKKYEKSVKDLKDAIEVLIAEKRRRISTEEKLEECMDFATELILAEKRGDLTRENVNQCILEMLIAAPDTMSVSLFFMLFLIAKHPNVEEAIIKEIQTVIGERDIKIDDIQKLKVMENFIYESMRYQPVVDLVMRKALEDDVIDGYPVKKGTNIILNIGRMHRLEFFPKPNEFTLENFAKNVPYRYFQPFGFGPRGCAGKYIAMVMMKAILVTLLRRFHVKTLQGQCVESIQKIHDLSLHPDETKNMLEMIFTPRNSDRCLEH

hypogonadal men = conditions: Caucasian group
[2] = system: prostate and seminal vesicle weights
[3] = 300 mg/wk for six weeks; TE: shoulders; ND: shoulders and chest
HIV-infected men = conditions: pharmacological doses
[4] = not given; remark: listed apart in the source
patients on dialysis = conditions: compared with placebo
androgen receptor = conditions: seminal vesicle

C[C@]12CC[C@H]3[C@@H](CCC4=C[C@@H](O)CC[C@@]43C)[C@@H]1CC[C@@H]2O [4-androstenediol]
urine testosterone concentration relative to 4-androstenedione [1]: 10 fold

C[C@]12CC[C@H]3[C@@H](CC=C4C[C@@H](O)CC[C@@]43C)[C@@H]1CC[C@@H]2O [5-androstenediol]
proportion of protein in the body composition (young female rats): increased the proportion of protein

COc1ccc(-c2coc3cc(O)cc(O)c3c2=O)cc1 [Biochanin A, 5,7-dihydroxy-4′-methoxyisoflavone]
aromatase inhibition (aromatase): inhibited aromatase, but to a lesser degree

C[C@]12CC[C@H](O)CC1=CC[C@@H]1[C@@H]2CC[C@]2(C)C(=O)CC[C@@H]12 [DHEA, dehydro-epiandrosterone]
plasma testosterone (50 mg dose): restored plasma testosterone to levels similar to those observed in young women | plasma testosterone (200 mg dose): slightly below the levels observed in normal men

C[C@@H]1CC2=CC(=O)CC[C@@H]2[C@H]2CC[C@]3(C)[C@@H](O)CC[C@H]3[C@@H]21 [MENT, 7α-methyl-19-nor-testosterone]
sexual interest and activity, spontaneous erection (hypogonadal men): significant increases | androgenic potency relative to testosterone [2]: four- to five-times more androgenic than testosterone | anabolic potency relative to testosterone (levator ani muscles): ten-times as potent as testosterone

CCCCCCCCCC(=O)O[C@H]1CC[C@H]2[C@@H]3CCC4=CC(=O)CC[C@@H]4[C@H]3CC[C@]12C [ND, 19-nor-testosterone decanoate]
body circumferences (of fifteen) [3]: significant increases | total weight, lean body mass, body cell mass, muscle size and strength (HIV-infected men): significant gains

CCCCCCC(=O)O[C@H]1CC[C@H]2[C@@H]3CCC4=CC(=O)CC[C@]4(C)[C@H]3CC[C@]12C [TE, testosterone enanthate]
body circumferences (of fifteen) [3]: significant increases | sexual interest and activity, spontaneous erection (hypogonadal men): significant increases

C[C@]12CC[C@H]3[C@@H](CCC4=CC(=O)CC[C@@H]43)[C@@H]1CC[C@@H]2O [nandrolone, 19-nor-testosterone]
decrease in HDL-cholesterol ([4]; body builders): 25-27% | decrease in diastolic blood pressure ([4]; body builders): 25-27% | azoospermia (lack of sperm) ([4]; nandrolone use): azoospermia | lean body mass (patients on dialysis): increased significantly | energy expenditure (young female rats): increased energy expenditure

C[C@]12CC[C@H]3[C@@H](CCC4=CC(=O)CC[C@@]43C)[C@@H]1CC[C@@H]2O [testosterone]
change of affinity to the androgen receptor on conversion by 5-α-reductase (androgen receptor): increasing by seven- to eight-fold | proportion of protein in the body composition (young female rats): increased the proportion of protein
